Source: patent US20180021323A1, “FLIP - A SELECTIVE MOLECULAR TARGET OF SENESCENT CELLS” (BIOVENTURES, LLC, priority 2015, published 2018)

Columns and labels:
FLIP = FLIP protein expression by Western blot in IR-induced senescent WI38 cells; assay type: cell-based, human; details: 10 μM, 24 h
Description: Treatment with doxycycoline (DOX) dose-dependently induces FLIP-shRNA expression in WI38 cell line after the cells were stably transfected with a plasmid containing FLIP-shRNA and red fluorescent protein (RFP) genes (FIG. 2A). Induction of FLIP-shRNA by doxycycoline down-regulates FLIP expression in IR-induced senescent WI38 cells stably transfected with FLIP-shRNA but not in vector transfected cells (FIG. 2B).
(§1) The expression of FLIP in normal (NC) and IR-induced senescent (SC) WI38 cells was determined by Western blot 24 h after they were treated with vehicle (VEH) or Drox (10 μM). Treatment with droxinostat (Drox) down-regulates the expression of FLIP mRNA in IR-induced senescent (SC) WI38 cells (FIG. 3B). IR-induced senescent (SC) WI38 cells were treated with vehicle (VEH) or Drox (10 μM) for 6 h and the expression of FLIP mRNA in these cells was determined by qPCR. […] Viable cells were determined 72 h after normal (NC) and IR-induced senescent (SC) WI38 cells were treated with vehicle (VEH) or increasing concentrations of Drox. The data are presented as a percentage of control cells treated with VEH. Treatment with droxinostat (Drox), piperlongumine (PL) and EF-24 down-regulates the expression of FLIP in IR-induced senescent (SC) WI38 cells (FIG. 3E). Normal (NC) and IR-induced senescent (SC) WI38 cells were treated with vehicle (VEH), Drox (10 μM), PL (10 μM), and EF-24 (10 μM) for 24 h and the expression of FLIP in these cells was determined by Western blots. […] Viable cells were determined 72 h after normal (NC) and IR-induced senescent (SC) WI38 cells were treated with vehicle (VEH) or increasing concentrations of Drox, PL, and EF-24. LD50 values for these molecules against NC and SC were calculated and presented.

normal (NC) WI38 cells = test: Cell viability of normal (NC) WI38 cells, 72 h treatment; assay type: cell-based; details: for LD50 (NC): normal (NC) WI38 cells, viable cells determined 72 h after treatment
Experimental: as §1, with “Treatment with droxinostat (Drox) down-regulates the expression of FLIP mRNA in IR-induced senescent (SC) WI38 cells (FIG. 3B).” left out, “Treatment with droxinostat (Drox), piperlongumine (PL) and EF-24 down-regulates the expression of FLIP in IR-induced senescent (SC) WI38 cells (FIG. 3E).” left out

[1] = tested on: IR-induced senescent (SC) WI38 cells; test: Cell viability of IR-induced senescent (SC) WI38 cells, 72 h treatment; assay type: cell-based, human; details: for LD50 (SC): IR-induced senescent (SC) WI38 cells, viable cells determined 72 h after treatment; for killing of IR-induced senescent (SC) WI38 cells (viable cells, % of vehicle control): increasing concentrations, 72 h
Experimental: as §1

FLIP mRNA = FLIP mRNA expression by qPCR in IR-induced senescent WI38 cells; assay type: cell-based, human; details: 10 μM, 6 h
Experimental: as §1

Row | Compound | expression of FLIP (Western blot, FIG. 3E) (FLIP) | LD50 (NC) (normal (NC) WI38 cells) [µM] | LD50 (SC) [1] [µM] | killing of IR-induced senescent (SC) WI38 cells (viable cells, % of vehicle control) [1] | expression of FLIP (Western blot, FIG. 3A) (FLIP) | expression of FLIP mRNA (qPCR, FIG. 3B) (FLIP mRNA) | effect on normal (NC) WI38 cells (viable cells, % of vehicle control) (normal (NC) WI38 cells; increasing concentrations, 72 h)
1 | O=C1/C(=C/c2ccccc2F)CNC/C1=C\c1ccccc1F [EF-24] | down-regulates | 6.08 | 1.05 | selectively kill |  |  | 
2 | COc1cc(/C=C/C(=O)N2CCC=CC2=O)cc(OC)c1OC [Piperlongumine, piperlongumine] | down-regulates | 24.25 | 7.05 | selectively kill |  |  | 
3 | Cc1cc(Cl)ccc1OCCCC(=O)NO [Droxinostat, 4-(4-chloro-2-methylphenoxy)-N-hydroxybutanamide] | down-regulates | 39.58 | 8.26 | selectively kill | down-regulated | down-regulates | minimal effect
